Activity calls are given as the source filed them. The rule behind the calls is not given here.
Test system: CCRIS mutagenicity, Ames/micronucleus/aberration tests
Assay: CCRIS mutagenicity studies
[1] = Test System: AMES SALMONELLA TYPHIMURIUM, Strain/Indicator: TA98, Metabolic Activation: HAMSTER, LIVER, S-9, AROCLOR 1254 (10%), Method: PREINCUBATION
[2] = Test System: AMES SALMONELLA TYPHIMURIUM, Strain/Indicator: TA98, Metabolic Activation: NONE, Method: PREINCUBATION
[3] = Test System: AMES SALMONELLA TYPHIMURIUM, Strain/Indicator: TA98, Metabolic Activation: RAT, LIVER, S-9, AROCLOR 1254 (10%), Method: PREINCUBATION
[4] = Test System: AMES SALMONELLA TYPHIMURIUM, Strain/Indicator: TA100, Metabolic Activation: HAMSTER, LIVER, S-9, AROCLOR 1254 (10%), Method: PREINCUBATION
[5] = Test System: AMES SALMONELLA TYPHIMURIUM, Strain/Indicator: TA100, Metabolic Activation: NONE, Method: PREINCUBATION
[6] = Test System: AMES SALMONELLA TYPHIMURIUM, Strain/Indicator: TA100, Metabolic Activation: RAT, LIVER, S-9, AROCLOR 1254 (10%), Method: PREINCUBATION
[7] = Test System: AMES SALMONELLA TYPHIMURIUM, Strain/Indicator: TA1535, Metabolic Activation: HAMSTER, LIVER, S-9, AROCLOR 1254 (10%), Method: PREINCUBATION
[8] = Test System: AMES SALMONELLA TYPHIMURIUM, Strain/Indicator: TA1535, Metabolic Activation: NONE, Method: PREINCUBATION
[9] = Test System: AMES SALMONELLA TYPHIMURIUM, Strain/Indicator: TA1535, Metabolic Activation: RAT, LIVER, S-9, AROCLOR 1254 (10%), Method: PREINCUBATION

In the case of CCCCOP(=O)(OCCCC)Oc1ccccc1, the mutagenic call (Test System: AMES SALMONELLA TYPHIMURIUM, Strain/Indicator: TA97, Metabolic Activation: HAMSTER, LIVER, S-9, AROCLOR 1254 (10%), Method: PREINCUBATION) is reported as “inactive; negative”, the mutagenic call (Test System: AMES SALMONELLA TYPHIMURIUM, Strain/Indicator: TA97, Metabolic Activation: HAMSTER, LIVER, S-9, AROCLOR 1254 (30%), Method: PREINCUBATION) is reported as “inactive; negative” and the mutagenic call (Test System: AMES SALMONELLA TYPHIMURIUM, Strain/Indicator: TA97, Metabolic Activation: NONE, Method: PREINCUBATION) is reported as “inactive; negative”. For the same compound, the mutagenic call (Test System: AMES SALMONELLA TYPHIMURIUM, Strain/Indicator: TA97, Metabolic Activation: RAT, LIVER, S-9, AROCLOR 1254 (10%), Method: PREINCUBATION) was “inactive; negative”, the mutagenic call (Test System: AMES SALMONELLA TYPHIMURIUM, Strain/Indicator: TA97, Metabolic Activation: RAT, LIVER, S-9, AROCLOR 1254 (30%), Method: PREINCUBATION) was “inactive; negative” and the mutagenic call [1] was “inactive; negative”. For the same compound, the mutagenic call (Test System: AMES SALMONELLA TYPHIMURIUM, Strain/Indicator: TA98, Metabolic Activation: HAMSTER, LIVER, S-9, AROCLOR 1254 (30%), Method: PREINCUBATION) was “inactive; negative”, the mutagenic call [2] was “inactive; negative” and the mutagenic call [3] was “inactive; negative”. For the same compound, the mutagenic call (Test System: AMES SALMONELLA TYPHIMURIUM, Strain/Indicator: TA98, Metabolic Activation: RAT, LIVER, S-9, AROCLOR 1254 (30%), Method: PREINCUBATION) was “inactive; negative”, the mutagenic call [4] was “inactive; negative” and the mutagenic call (Test System: AMES SALMONELLA TYPHIMURIUM, Strain/Indicator: TA100, Metabolic Activation: HAMSTER, LIVER, S-9, AROCLOR 1254 (30%), Method: PREINCUBATION) was “inactive; negative”. For the same compound, the mutagenic call [5] was “inactive; negative”, the mutagenic call [6] was “inactive; negative” and the mutagenic call (Test System: AMES SALMONELLA TYPHIMURIUM, Strain/Indicator: TA100, Metabolic Activation: RAT, LIVER, S-9, AROCLOR 1254 (30%), Method: PREINCUBATION) was “inactive; negative”. The mutagenic call [7] was “inactive; negative”, the mutagenic call (Test System: AMES SALMONELLA TYPHIMURIUM, Strain/Indicator: TA1535, Metabolic Activation: HAMSTER, LIVER, S-9, AROCLOR 1254 (30%), Method: PREINCUBATION) was “inactive; negative” and the mutagenic call [8] was “inactive; negative”. The mutagenic call [9] was “inactive; negative” and the mutagenic call (Test System: AMES SALMONELLA TYPHIMURIUM, Strain/Indicator: TA1535, Metabolic Activation: RAT, LIVER, S-9, AROCLOR 1254 (30%), Method: PREINCUBATION) was “inactive; negative”.

With NC(=O)C1(N2CCCCC2)CCN(CCCC(=O)c2ccc(F)cc2)CC1 the mutagenic call (End Point: IN VITRO CHROMOSOMAL ABERRATIONS, Test System: HUMAN LYMPHOCYTES, Metabolic Activation: NONE) was “inactive; negative”.

CC1=NN(c2ccccc2)C(=O)C1 was tested, and the mutagenic call [1] was “inactive; negative”, the mutagenic call [2] was “inactive; negative” and the mutagenic call [3] was “inactive; negative”. For the same compound, the mutagenic call [4] was “inactive; negative”, the mutagenic call [5] was “inactive; negative” and the mutagenic call [6] was “inactive; negative”. The mutagenic call [7] was “inactive; negative”, the mutagenic call [8] was “inactive; negative” and the mutagenic call [9] was “inactive; negative”. The mutagenic call (Test System: AMES SALMONELLA TYPHIMURIUM, Strain/Indicator: TA1537, Metabolic Activation: HAMSTER, LIVER, S-9, AROCLOR 1254 (10%), Method: PREINCUBATION) was “inactive; negative”, the mutagenic call (Test System: AMES SALMONELLA TYPHIMURIUM, Strain/Indicator: TA1537, Metabolic Activation: NONE, Method: PREINCUBATION) was “inactive; negative” and the mutagenic call (Test System: AMES SALMONELLA TYPHIMURIUM, Strain/Indicator: TA1537, Metabolic Activation: RAT, LIVER, S-9, AROCLOR 1254 (10%), Method: PREINCUBATION) was “inactive; negative”. For the same compound, the mutagenic call (Test System: Ames Salmonella typhimurium, Strain/Indicator: TA98, Metabolic Activation: None, Method: Preincubation) was “inactive; negative”, the mutagenic call (Test System: Ames Salmonella typhimurium, Strain/Indicator: TA98, Metabolic Activation: Rat, Liver, S-9, Phenobarbital and 5,6-benzoflavone, Method: Preincubation) was “inactive; negative” and the mutagenic call (Test System: Ames Salmonella typhimurium, Strain/Indicator: TA100, Metabolic Activation: None, Method: Preincubation) was “inactive; negative”. For the same compound, the mutagenic call (Test System: Ames Salmonella typhimurium, Strain/Indicator: TA100, Metabolic Activation: Rat, Liver, S-9, Phenobarbital and 5,6-benzoflavone, Method: Preincubation) was “inactive; negative”, the mutagenic call (Test System: Ames Salmonella typhimurium, Strain/Indicator: TA1535, Metabolic Activation: None, Method: Preincubation) was “inactive; negative” and the mutagenic call (Test System: Ames Salmonella typhimurium, Strain/Indicator: TA1535, Metabolic Activation: Rat, Liver, S-9, Phenobarbital and 5,6-benzoflavone, Method: Preincubation) was “inactive; negative”. For the same compound, the mutagenic call (Test System: Ames Salmonella typhimurium, Strain/Indicator: TA1537, Metabolic Activation: None, Method: Preincubation) was “inactive; negative”, the mutagenic call (Test System: Ames Salmonella typhimurium, Strain/Indicator: TA1537, Metabolic Activation: Rat, Liver, S-9, Phenobarbital and 5,6-benzoflavone, Method: Preincubation) was “inactive; negative” and the mutagenic call (Test System: E. COLI, Strain/Indicator: WP2 UVRA, Metabolic Activation: HAMSTER, LIVER, S-9, AROCLOR 1254, Method: STANDARD PLATE) was “inactive; negative”. The mutagenic call (Test System: E. COLI, Strain/Indicator: WP2 UVRA, Metabolic Activation: HAMSTER, LIVER, S-9, Method: STANDARD PLATE) was “inactive; negative”, the mutagenic call (Test System: E. COLI, Strain/Indicator: WP2 UVRA, Metabolic Activation: MOUSE, LIVER, S-9, AROCLOR 1254, Method: STANDARD PLATE) was “inactive; negative” and the mutagenic call (Test System: E. COLI, Strain/Indicator: WP2 UVRA, Metabolic Activation: MOUSE, LIVER, S-9, Method: STANDARD PLATE) was “inactive; negative”. The mutagenic call (Test System: E. COLI, Strain/Indicator: WP2 UVRA, Metabolic Activation: NONE, Method: STANDARD PLATE) was “inactive; negative”, the mutagenic call (Test System: E. COLI, Strain/Indicator: WP2 UVRA, Metabolic Activation: RAT, LIVER, S-9, AROCLOR 1254, Method: STANDARD PLATE) was “inactive; negative” and the mutagenic call (Test System: E. COLI, Strain/Indicator: WP2 UVRA, Metabolic Activation: RAT, LIVER, S-9, Method: STANDARD PLATE) was “inactive; negative”. The mutagenic call (Test System: E. coli, Strain/Indicator: WP2uvrA/pKM101, Metabolic Activation: None, Method: Preincubation) was “inactive; negative”, the mutagenic call (Test System: E. coli, Strain/Indicator: WP2uvrA/pKM101, Metabolic Activation: Rat, Liver, S-9, Phenobarbital and 5,6-benzoflavone, Method: Preincubation) was “inactive; negative” and the mutagenic call (Test System: MOUSE LYMPHOMA, Strain/Indicator: L5178Y (TK+/TK-), Metabolic Activation: NONE, Method: SUSPENSION/PLATE) was “inactive; negative”. For the same compound, the mutagenic call (Test System: MOUSE LYMPHOMA, Strain/Indicator: L5178Y (TK+/TK-), Metabolic Activation: RAT, LIVER, S-9, AROCLOR 1254, Method: SUSPENSION/PLATE) was “active; positive”.

Reference: PubChem BioAssay AID1259407 (Chemical Carcinogenesis Research Information System (CCRIS), 2018)
